Entries after “also recorded” stand apart in the source; their conditions may differ.
Columns and labels:
Assay type in all cases: cell-based, human
Caco-2 monolayers = experiment: Monolayer flux of 3 kDa FITC-dextran, Caco-2; conditions: 100 ng/ml ligand on days 10 and 12, flux measured on day 15, PBS 20.28 ± 4.72
Method: Cells were plated on transwells as described. Media from the basolateral chamber was removed every other day and replaced with new media. Resistances were followed for 10 days, and either 100 ng/ml FGF2, 100 ng/ml FGF7 or 10 μl PBS were added on days 10 and 12. On day 15, media was removed from both the apical and basolateral chambers. The basolateral chamber was filled with 1 ml HBSS. FITC conjugated to 3 kDa dextran was added to the apical chamber in a volume of 100 μl, at 1 mg/ml in HBSS. After 30, 60 and 90 minutes, 50 μl was removed from the basolateral chamber and transferred to a 96 well plate, and 50 μl HBSS was added to the basolateral chamber. Subsequently, the flux was determined by measurement of FITC-conjugated dextran that crossed the monolayer by measurement with a fluorimeter, stimulating at 480 nm and measuring emission at 530 nm.

TCF/LEF = TCF/LEF assay (TOPFLASH luciferase) in Caco-2 cells; conditions: compared to PBS and FGF1
Method: Caco-2 cells were seeded in 12 well plates such that they would reach 90% confluency in 4 days. Two days after plating, Caco-2 cells were transiently transfected with the TOPFLASH (contains 4 TCF/LEF binding elements) luciferase promoter construct (Promega, Madison, Wis.) as well as a thymidine kinase driven renilla luciferase construct (Promega, Madison, Wis.) as a transfection control vector. Each well was transfected with 1.5 μg DNA using Superfect transfection reagent (Promega, Madison, Wis.). Twenty-four hours after transfection, Caco-2 cells were treated with PBS, FGF1, FGF2 or FGF7, for 1 hour, 4 hours or 24 hours. The Caco-2 cells were processed using a dual-luciferase assay system to measure luciferase activity from both the TOPFLASH constructs and the renilla constructs. All results were standardized to the relative transfection efficiencies as observed from the renilla values.

occludin and ZO-1 [1] = experiment: Immunostaining for occludin and ZO-1 in Caco-2 cells; conditions: 100 ng/ml
Method: To determine occludin and ZO-1 expression patterns, cells were plated on transwells as described for TER assays. Media from the basolateral chamber was removed every other day and replaced with new media. Resistances were measured for 10 days, and either 100 ng/ml FGF2, 100 ng/ml FGF7 or 10 μl PBS were added on days 10 and 12. On day 15, media was removed from both the apical and basolateral chambers, and the apical chamber was washed twice with PBS. One ml of 1% (w/v) paraformaldehyde in cacodylate buffer was added to each well, the plates were incubated for 10 minutes at room temperature, and the wells were washed once in PBS. One ml permeabilization media, consisting of 0.2% Triton X-100 and 2% BSA in PBS, was added to each well. After a 10 minute incubation at room temperature, wells were washed three times. 20 μl primary antibodies (rabbit polyclonal anti-human or occludin rabbit polyclonal anti-human ZO-1) diluted 1:20 in 1% goat serum, 0.25% sodium azide in PBS, were added to the apical chamber of three wells per antibody per ligand, and plates were incubated for 1 hour in a humidified chamber. […] Staining was then visualized by fluorescence microscopy. […] A Nikon HB10101AF fluorescence microscope was used to capture images at room temperature using a Hitachi HVC20 camera and Scion image acquisition software. […]

occludin and ZO-1 [2] = experiment: Immunostaining for occludin and ZO-1 in T84 cells; conditions: 100 ng/ml
Method: To determine occludin and ZO-1 expression patterns, cells were plated on transwells as described for TER assays. Media from the basolateral chamber was removed every other day and replaced with new media. Resistances were measured for 10 days, and either 100 ng/ml FGF2, 100 ng/ml FGF7 or 10 μl PBS were added on days 10 and 12. On day 15, media was removed from both the apical and basolateral chambers, and the apical chamber was washed twice with PBS. One ml of 1% (w/v) paraformaldehyde in cacodylate buffer was added to each well, the plates were incubated for 10 minutes at room temperature, and the wells were washed once in PBS. One ml permeabilization media, consisting of 0.2% Triton X-100 and 2% BSA in PBS, was added to each well. After a 10 minute incubation at room temperature, wells were washed three times. 20 μl primary antibodies (rabbit polyclonal anti-human or occludin rabbit polyclonal anti-human ZO-1) diluted 1:20 in 1% goat serum, 0.25% sodium azide in PBS, were added to the apical chamber of three wells per antibody per ligand, and plates were incubated for 1 hour in a humidified chamber. […] Staining was then visualized by fluorescence microscopy. […] A Nikon HB10101AF fluorescence microscope was used to capture images at room temperature using a Hitachi HVC20 camera and Scion image acquisition software.

f-actin = f-actin (phalloidin) staining in Caco-2 cells; conditions: Caco-2 monolayers
Method: (§1) Caco-2 cells were grown to just prior to confluency on collagen IV coated glass slides. Cells were treated with PBS, FGF1, FGF2 and FGF7, and were incubated at 37° C. in a 5% CO2 humidified incubator for 1 hour, 4 hours, 24 hours or 48 hours, as noted. Cells were washed with PBS, fixed with 3.7% formalin for 10 minutes and washed again with PBS. Cells were treated with 0.1% Triton x-100 for 5 minutes to extract lipids. Cells were washed with PBS and preincubated with PBS supplemented with 1% bovine serum albumin. Primary antibodies were added for 4 hours at room temperature, and cells were washed with PBS. […]
(§2) Cells, except those stained with phalloidin, were washed with PBS and stained with diamidino-2-phenylindole (DAPI) for 5 minutes at room temperature (Molecular Probes). […] Cells were examined by confocal microscopy (ZO-1 and phalloidin only), or by fluorescence microscopy. A Nikon HB10101AF fluorescence microscope was used and images were captured at room temperature using a Hitachi HVC20 camera and Scion image acquisition software. […]

phospho-β-catenin = experiment: Immunohistochemistry for phospho-β-catenin in Caco-2 cells
Method: as §1, §2

FGF2: Recombinant human FGF2, produced as described
Flux across monolayers (3 kDa-dextran conjugated to FITC; function of emission at 530 nm over time) (Caco-2 monolayers): 47.82 ± 4.64
TCF/LEF activity (TCF/LEF): increased TCF/LEF activity
membrane ruffling (tight junction protein staining) (occludin and ZO-1 [1]): induced ruffling of cell membranes; also recorded: induced notable membrane ruffling
membrane ruffling (tight junction protein staining) (occludin and ZO-1 [2]): induced ruffling of cell membranes
actin stress fiber formation (f-actin): induced actin stress fiber formation
phosphorylated β-catenin localization (phospho-β-catenin): clustered around the nucleus

B1: FGF7: Recombinant human FGF7 from Sigma (protein, UniProt P21781 32-194, looked up)
Fibroblast growth factor 7: CNDMTPEQMATNVNCSSPERHTRSYDYMEGGDIRVRRLFCRTQWYLRIDKRGKVKGTQEMKNNYNIMEIRTVAVGIVAIKGVESEFYLAMNKEGKLYAKKECNEDCNFKELILENHYNTYASAKWTHNGGEMFVALNQKGIPVRGKKTKKEQKTAHFLPMAIT
Flux across monolayers (3 kDa-dextran conjugated to FITC; function of emission at 530 nm over time) (Caco-2 monolayers): 117.14 ± 25.36
TCF/LEF activity (TCF/LEF): increased TCF/LEF activity
membrane ruffling (tight junction protein staining) (occludin and ZO-1 [1]): induced ruffling of cell membranes; also recorded: induced notable membrane ruffling
membrane ruffling (tight junction protein staining) (occludin and ZO-1 [2]): induced ruffling of cell membranes
actin stress fiber formation (f-actin): induced actin stress fiber formation
phosphorylated β-catenin localization (phospho-β-catenin): clustered around the nucleus
